Assay results: PubChem BioAssay (NCI)
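Protocol summary: plate cells (96-well), add compound at 5 concentrations, incubate 48 h, interpolate endpoints linearly. The concentration for 50% growth inhibition is given as GI50. TGI marks complete inhibition of growth.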

Tests used:
Assay in all cases: NCI tumour cell line growth inhibition, 48 h
LOX IMVI melanoma = tested on: LOX IMVI melanoma
OVCAR-5 ovarian = tested on: OVCAR-5 ovarian
NCI/ADR-RES ovarian = tested on: NCI/ADR-RES ovarian
COLO 205 colon = tested on: COLO 205 colon
DU-145 prostate = tested on: DU-145 prostate
T-47D breast = tested on: T-47D breast
KM12 colon = tested on: KM12 colon
NCI-H522 lung = tested on: NCI-H522 lung
HT29 colon = tested on: HT29 colon
SK-MEL-2 melanoma = tested on: SK-MEL-2 melanoma
HL-60(TB) leukemia = tested on: HL-60(TB) leukemia

| SMILES | TGI (LOX IMVI melanoma) [µM] | TGI (OVCAR-5 ovarian) [µM] | TGI (NCI/ADR-RES ovarian) [µM] | TGI (COLO 205 colon) [µM] | TGI (DU-145 prostate) [µM] | TGI (T-47D breast) [µM] | TGI (KM12 colon) [µM] | TGI (NCI-H522 lung) [µM] | TGI (HT29 colon) [µM] | TGI (SK-MEL-2 melanoma) [µM] | TGI (HL-60(TB) leukemia) [µM] | GI50 (NCI/ADR-RES ovarian) [µM] | GI50 (HL-60(TB) leukemia) [µM] | GI50 (T-47D breast) [µM] |
| --- | --- | --- | --- | --- | --- | --- | --- | --- | --- | --- | --- | --- | --- | --- |
| CCC(=O)OCc1ccc2oc(=O)c(C(=O)Oc3cncc(Cl)c3)cc2c1 | > 100 | > 100 | > 100 | > 100 | > 100 | > 100 | > 100 | > 100 | > 100 | > 100 |  |  |  |  |
| C=C1C(=O)OC2/C=C(\C)C(O)CC(O)C(C)(O)CC(OC(=O)/C(C)=C/C)C12 (centres undefined) | > 100 | > 100 |  | > 100 | > 100 | > 100 | > 75.8 | > 100 | > 100 | > 100 | > 82.8 |  |  |  |
| [Cl-].[Rh+3].c1ccc(-c2ccnc3c2ccc2c(-c4ccccc4)ccnc23)cc1.c1ccc(-c2ccnc3c2ccc2c(-c4ccccc4)ccnc23)cc1.c1ccc(-c2ccnc3c2ccc2c(-c4ccccc4)ccnc23)cc1 | > 100 | > 100 | > 100 | 43.3 |  |  | 19.7 | > 85.1 | 73.7 | > 100 | 60.3 | 73.2 |  |  |
| O=C(CSc1nnc(Cc2ccccc2)o1)Nc1ccc(Cl)cc1 | > 100 | > 100 |  | > 100 |  |  | > 100 | > 100 | > 100 | > 100 | > 100 |  |  |  |
| c1ccc2c(c1)CCc1c-2n(CCN2CCCCC2)c2ccccc12 | 29.6 | 30.2 | 33.1 | 26.2 | > 100 | 44.5 | 32 | 27.1 | 22.8 | 30.2 |  |  |  |  |
| Cc1ccc(/C=C2\NC(=S)N(CN3CCOCC3)C2=O)cc1 | > 100 | > 100 | > 100 | > 100 | > 100 |  | > 100 |  | > 100 | > 100 |  |  |  |  |
| COc1cccc(NCC(=O)Nn2c(-c3ccccc3)nc3ccccc3c2=O)c1 | > 100 | > 100 | > 100 | > 100 | > 100 | > 100 | > 100 | > 100 | > 100 |  | > 100 |  |  |  |
| CC(C)CCCC(C)[C@H]1CC[C@H]2[C@@H]3CC[C@H]4C[C@@H](CCC=C(c5cc(Cl)c(O)c(C(=O)OC(C)(C)C)c5)c5cc(Cl)c(O)c(C(=O)OC(C)(C)C)c5)CC[C@]4(C)[C@H]3CC[C@]12C (some centres undefined) | > 50 | > 50 | > 50 | > 50 | > 50 | > 50 | > 50 |  | > 50 | > 50 | > 50 |  |  |  |
| CCCn1cnc2c(NN=O)ncnc21 |  | > 100 | > 100 | > 100 | > 100 | > 100 | > 100 | > 100 | > 100 |  | > 100 |  |  |  |
| O=C(CCCCCCCCC(=O)NN1C(=O)/C(=C\c2ccc(O)c(O)c2)SC1c1c(O)ccc2ccccc12)NN1C(=O)C(=Cc2ccc(O)c(O)c2)SC1c1c(O)ccc2ccccc12 (centres undefined) | 13 | > 100 | > 100 | 73.5 | > 59.8 | 62.1 | > 100 | 30.7 | > 100 | > 38.6 |  |  |  |  |
| CCOC(=O)c1c(C)n(Cc2ccccc2)c2c1cc(O)c1[nH]c3c(c12)CCCC3 | 16.8 | 20.1 | 18.5 | 18.9 | 26.1 |  | 13.2 | 2.58 | 26.4 | 5.25 | 5.52 |  |  |  |
| Oc1ccc2c(c1)OCC(O)(c1ccccc1O)C2 (centres undefined) | > 100 | > 100 | > 100 | > 100 | > 100 | > 100 | > 100 |  | > 100 | > 100 | > 100 |  |  |  |
| O=c1ccc2ccccc2o1 | > 100 | > 100 |  | > 100 |  |  | > 100 | > 100 | > 100 | > 100 | > 100 |  |  |  |
| CN(C)c1ccc(/C=C/c2sc3ccc4ccccc4c3[n+]2C)cc1 |  |  | > 100 |  |  |  |  |  |  |  | 1.18 | 2.81 | 0.33 | 0.367 |
| O=c1c2cc(Br)ccc2oc2nc3n(c(=O)c12)CCCS3 | > 100 | > 100 | > 100 | > 100 | > 100 | > 100 | > 100 | > 100 |  | > 100 |  |  |  |  |
| OC1C(O)C(O)C(O)C(O)C1O (centres undefined) | > 1000 | > 1000 | > 1000 | > 1000 | > 1000 | > 1000 |  |  | > 1000 | > 1000 |  |  |  |  |
| CN1N=C2c3ccccc3CC[C@H]2C1c1ccccc1 (some centres undefined) | > 100 | > 100 |  | > 100 |  |  | > 100 | 94.3 | > 100 | > 100 | > 100 |  |  |  |
| Cn1c(C(C#N)c2cc(Cl)ncn2)nc2ccccc21 (centres undefined) | > 100 | > 100 | > 100 | > 100 | > 100 | > 100 | > 100 | > 100 | > 100 |  |  |  |  |  |
| CCSc1nc2sc(C)c(C)c2c(=O)n1-c1ccc(C(=O)O)cc1 | > 100 | > 100 |  | > 100 |  |  | > 100 | 76.3 | > 100 | > 100 | > 100 |  |  |  |
| OCCCSc1ccccc1SCCCO | > 100 | > 100 | > 100 | > 100 | > 100 | > 100 | > 100 | > 100 | > 100 |  | > 100 |  |  |  |
| C#CC(O)/C=C/CCCCCCC#CC/C=C\CC#CCCCCCC/C=C/C(O)C#C (centres undefined) | 0.0282 | 7.86 | 8.26 | 4.29 | 8.99 | 5.85 | 5.29 |  | 6.86 | 6.8 | 3.86 |  |  |  |
| COC(=O)C(NC(=O)CNC(=O)CSc1nnc(COc2ccc(Cl)cc2)n1-c1ccccc1)C(C)C (centres undefined) | 50 | 40.1 | > 100 | 34.1 | 35.2 |  | 35.4 | 19.3 | 35.3 | 40.5 |  |  |  |  |
